Results from patent US8022206B2 (OSI Pharmaceuticals, LLC, priority 2008, dated 2011).
pIC50: −log10 of the molar value.

Tests used:
[1] = target: RON (human) (Homo sapiens, UniProt Q04912); test: RON (human) AlphaScreen kinase assay, Km of ATP; format: biochemical; conditions: AlphaScreen, Km of ATP; read-out: RON biochemical IC50
Method in brief: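 Reaction was started with enzyme and run 30 min at RT. PT66 donor/acceptor beads in an EDTA-containing Tris pH 7.5 buffer were then added, and the signal was read after 1 h.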

[2] = target: MET (human) (Homo sapiens, UniProt P08581); test: MET (human) AlphaScreen kinase assay, Km of ATP; format: biochemical; conditions: AlphaScreen, Km of ATP; read-out: Met biochemical IC50
Chain of MET (human) (P08581 25-1390): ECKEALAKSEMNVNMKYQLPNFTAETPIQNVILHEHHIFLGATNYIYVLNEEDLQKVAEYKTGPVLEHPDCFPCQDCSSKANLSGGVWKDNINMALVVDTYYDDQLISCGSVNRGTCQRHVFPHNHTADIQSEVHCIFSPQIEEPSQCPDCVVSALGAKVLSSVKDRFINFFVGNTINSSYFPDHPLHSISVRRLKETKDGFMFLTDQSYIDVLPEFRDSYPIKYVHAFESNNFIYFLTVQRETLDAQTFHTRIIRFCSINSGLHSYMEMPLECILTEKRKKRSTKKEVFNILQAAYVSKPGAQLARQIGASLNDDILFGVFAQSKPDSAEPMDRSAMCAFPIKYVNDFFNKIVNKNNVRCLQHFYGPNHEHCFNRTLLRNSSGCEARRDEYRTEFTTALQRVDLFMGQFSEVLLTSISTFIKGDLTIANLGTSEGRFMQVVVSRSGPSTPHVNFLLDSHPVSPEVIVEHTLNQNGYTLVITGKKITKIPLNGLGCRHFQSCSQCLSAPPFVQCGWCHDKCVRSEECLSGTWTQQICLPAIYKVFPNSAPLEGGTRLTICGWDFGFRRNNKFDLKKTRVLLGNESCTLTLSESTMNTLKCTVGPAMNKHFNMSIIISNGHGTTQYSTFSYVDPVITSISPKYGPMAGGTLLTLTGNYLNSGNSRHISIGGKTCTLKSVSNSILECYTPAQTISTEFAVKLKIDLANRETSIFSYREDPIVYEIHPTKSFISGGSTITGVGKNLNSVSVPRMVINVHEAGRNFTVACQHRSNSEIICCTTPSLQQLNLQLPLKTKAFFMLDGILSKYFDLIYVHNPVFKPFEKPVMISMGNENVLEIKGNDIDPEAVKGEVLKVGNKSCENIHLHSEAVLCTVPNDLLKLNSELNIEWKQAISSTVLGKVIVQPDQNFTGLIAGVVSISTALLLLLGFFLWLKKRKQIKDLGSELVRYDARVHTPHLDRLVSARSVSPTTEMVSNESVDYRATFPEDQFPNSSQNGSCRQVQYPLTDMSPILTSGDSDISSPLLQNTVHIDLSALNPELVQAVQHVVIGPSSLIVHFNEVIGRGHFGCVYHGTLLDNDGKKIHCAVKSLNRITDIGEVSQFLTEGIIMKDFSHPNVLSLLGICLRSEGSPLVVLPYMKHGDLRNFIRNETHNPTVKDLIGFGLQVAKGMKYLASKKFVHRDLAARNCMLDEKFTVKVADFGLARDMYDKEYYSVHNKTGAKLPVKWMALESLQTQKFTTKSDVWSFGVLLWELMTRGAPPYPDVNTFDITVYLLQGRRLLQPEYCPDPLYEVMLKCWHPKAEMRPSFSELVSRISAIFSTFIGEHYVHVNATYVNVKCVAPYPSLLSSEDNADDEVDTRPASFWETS
Method in brief: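 Human MET at lot-optimised concentration in 50 mM Tris pH 7.4 buffer with 1 mM DTT, compound at 1% DMSO final; enzyme starts the reaction, 60 min at RT.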

Chain of RON (human) (Q04912 25-1400): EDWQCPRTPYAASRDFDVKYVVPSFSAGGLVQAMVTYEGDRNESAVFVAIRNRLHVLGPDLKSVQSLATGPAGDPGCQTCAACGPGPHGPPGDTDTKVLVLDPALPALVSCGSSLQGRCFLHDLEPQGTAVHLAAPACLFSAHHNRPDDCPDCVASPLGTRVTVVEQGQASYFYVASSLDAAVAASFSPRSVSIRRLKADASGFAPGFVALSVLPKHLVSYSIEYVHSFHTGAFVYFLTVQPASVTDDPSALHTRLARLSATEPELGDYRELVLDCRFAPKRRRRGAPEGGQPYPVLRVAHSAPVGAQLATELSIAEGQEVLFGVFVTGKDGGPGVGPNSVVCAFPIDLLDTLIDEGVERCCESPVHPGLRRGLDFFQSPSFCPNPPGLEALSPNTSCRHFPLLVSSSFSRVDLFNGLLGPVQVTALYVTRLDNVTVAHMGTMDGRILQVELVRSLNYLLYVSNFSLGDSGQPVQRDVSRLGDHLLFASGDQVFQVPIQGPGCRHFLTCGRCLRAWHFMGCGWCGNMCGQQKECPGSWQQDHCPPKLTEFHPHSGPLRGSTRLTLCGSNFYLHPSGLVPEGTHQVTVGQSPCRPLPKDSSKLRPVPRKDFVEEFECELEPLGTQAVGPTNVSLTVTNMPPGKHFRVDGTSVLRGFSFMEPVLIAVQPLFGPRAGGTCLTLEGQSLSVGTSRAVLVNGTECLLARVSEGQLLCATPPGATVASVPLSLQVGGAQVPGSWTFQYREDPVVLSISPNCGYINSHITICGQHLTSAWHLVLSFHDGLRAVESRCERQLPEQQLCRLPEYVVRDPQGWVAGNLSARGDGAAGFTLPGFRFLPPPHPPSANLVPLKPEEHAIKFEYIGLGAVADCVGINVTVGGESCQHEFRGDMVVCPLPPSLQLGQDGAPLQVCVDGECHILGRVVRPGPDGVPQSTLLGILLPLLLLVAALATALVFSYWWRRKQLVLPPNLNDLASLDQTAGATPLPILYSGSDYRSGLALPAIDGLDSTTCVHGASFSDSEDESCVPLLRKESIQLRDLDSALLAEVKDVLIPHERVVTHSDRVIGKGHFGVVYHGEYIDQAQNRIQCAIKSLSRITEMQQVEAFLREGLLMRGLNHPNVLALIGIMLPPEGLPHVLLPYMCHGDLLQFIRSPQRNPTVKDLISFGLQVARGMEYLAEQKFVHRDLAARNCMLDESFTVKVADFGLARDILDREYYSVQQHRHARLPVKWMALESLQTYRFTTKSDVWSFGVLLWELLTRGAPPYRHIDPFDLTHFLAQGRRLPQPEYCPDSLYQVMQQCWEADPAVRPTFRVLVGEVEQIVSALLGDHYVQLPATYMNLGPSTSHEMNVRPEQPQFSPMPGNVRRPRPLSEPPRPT

pIC50 [1]	pIC50 [2]	Structure (SMILES)
> 6.30	> 6.30	CC(Oc1c(N)ncc2c(-c3cnn(C4CCNCC4)c3)coc12)c1c(Cl)c(F)cc(OC2CNC2)c1Cl (stereo not drawn) [Example 159, 7-{1-[3-(Azetidin-3-yloxy)-2,6-dichloro-5-fluorophenyl]ethoxy}-3-[1-(piperidin-4-yl)-1H-pyrazol-4-yl]furo[3,2-c]pyridin-6-amine]
5.30 to 6.30	5.30 to 6.30	C[C@@H](Oc1c(N)ncc2c(-c3ccsc3)coc12)c1c(Cl)ccc(F)c1Cl [Example 134, 7-[(R)-(2,6-Dichloro-3-fluorophenyl)ethoxy]-3-thiophen-3-ylfuro[3,2-c]pyridin-6-ylamine]
5.30 to 6.30	5.30 to 6.30	Cc1cccc(C)c1C(C)Oc1c(N)ncc2c(-c3cnn(C4CCNCC4)c3)coc12 (stereo not drawn) [Example 402, 7-[1-(2,6-Dimethylphenyl)ethoxy]-3-(1-piperidin-4-yl-1H-pyrazol-4-yl)furo[3,2-c]pyridin-6-ylamine]
> 6.30	> 6.30	CC(Cc1ccccc1Br)Oc1c(N)ncc2c(-c3cnn(C4CCNCC4)c3)coc12 (stereo not drawn) [Example 436, 7-[2-(2-Bromophenyl)-1-methylethoxy]-3-(1-piperidin-4-yl-1H-pyrazol-4-yl)furo[3,2-c]pyridin-6-ylamine]
5.30 to 6.30	5.30 to 6.30	C[C@@H](Oc1c(N)ncc2c(C3CCN(C(N)=O)CC3)coc12)c1c(Cl)ccc(F)c1Cl [Example 195, 4-{6-Amino-7-[(R)-1-(2,6-dichloro-3-fluorophenyl)ethoxy]furo[3,2-c]pyridin-3-yl}-piperidine-1-carboxamide]
5.30 to 6.30	> 6.30	C[C@@H](Oc1c(N)ncc2c(-c3ccc(C(=O)O)s3)coc12)c1c(Cl)ccc(F)c1Cl [Example 206, 5-{6-Amino-7-[(R)-1-(2,6-dichloro-3-fluorophenyl)ethoxy]-furo[3,2-c]pyridin-3-yl}-thiophene-2-carboxylic acid]
5.30 to 6.30	> 6.30	CC(Cc1ccccc1F)Oc1c(N)ncc2c(-c3cnn(C4CCNCC4)c3)coc12 (stereo not drawn) [Example 423, 7-[2-(2-Fluorophenyl)-1-methylethoxy]-3-(1-piperidin-4-yl-1H-pyrazol-4-yl)furo[3,2-c]pyridin-6-ylamine]
> 6.30	> 6.30	C[C@@H](Oc1c(N)ncc2c(-c3cnn(C4CCNCC4)c3)c(C#CCN)oc12)c1c(Cl)ccc(F)c1Cl [Example 173, 2-(3-Aminoprop-1-ynyl)-7-[(R)-1-(2,6-dichloro-3-fluorophenyl)ethoxy]-3-(1-piperidin-4-yl-1H-pyrazol-4-yl)-furo[3,2-c]pyridin-6-ylamine]
5.30 to 6.30	5.30 to 6.30	C[C@@H](Oc1c(N)ncc2c(C3=CCN(C(=O)Nc4ccccc4Cl)CC3)coc12)c1c(Cl)ccc(F)c1Cl [Example 152, 4-{6-Amino-7-[(1R)-1-(2,6-dichloro-3-fluorophenyl)ethoxy]furo[3,2-c]pyridin-3-yl}-N-(2-chlorophenyl)-3,6-dihydropyridine-1(2H)-carboxamide]
5.30 to 6.30	> 6.30	CCNC(=O)N1CC=C(c2coc3c(O[C@H](C)c4c(Cl)ccc(F)c4Cl)c(N)ncc23)CC1 [Example 151, 4-{6-Amino-7-[(1R)-1-(2,6-dichloro-3-fluorophenyl)ethoxy]furo[3,2-c]pyridin-3-yl}-N-ethyl-3,6-dihydropyridine-1(2H)-carboxamide]
5.30 to 6.30	> 6.30	C[C@@H](Oc1c(N)ncc2c(C3=CCN(Cc4ccccc4)CC3)coc12)c1c(Cl)ccc(F)c1Cl [Example 39, 3-(1-Benzyl-1,2,3,6-tetrahydropyridin-4-yl)-7-[(R)-1-(2,6-dichloro-3-fluorophenyl)-ethoxy]-furo[3,2-c]pyridin-6-ylamine]
5.30 to 6.30	5.30 to 6.30	C[C@@H](Oc1c(N)ncc2c(C3=CCN(C(=O)C4(O)CC4)CC3)coc12)c1c(Cl)ccc(F)c1Cl [Example 19, (4-{6-Amino-7-[(R)-1-(2,6-dichloro-3-fluorophenyl)-ethoxy]-furo[3,2-c]pyridin-3-yl}-3,6-dihydro-2H-pyridin-1-yl)-(1-hydroxycyclopropyl)-methanone]
> 6.30	> 6.30	C[C@@H](Oc1c(N)ncc2c(-c3ccc(N4CCN(C)CC4)cc3)coc12)c1c(Cl)ccc(F)c1Cl [Example 86, 7-[(R)-1-(2,6-Dichloro-3-fluor-phenyl)ethoxy]-3-[4-(4-methylpiperazin-1-yl)-phenyl]furo[3,2-c]pyridin-6-ylamine]
5.30 to 6.30	> 6.30	CC(Oc1c(N)ncc2c(-c3cnn(C4CCNCC4)c3)coc12)c1ccc(C(F)(F)F)cc1 (stereo not drawn) [Example 348, 3-(1-Piperidin-4-yl-1H-pyrazol-4-yl)-7-[1-(4-trifluoromethyl-phenyl)ethoxy]furo[3,2-c]pyridin-6-ylamine]
5.30 to 6.30	5.30 to 6.30	C[C@@H](Oc1c(N)ncc2c(-c3cnn(CCN4CCOCC4)c3)coc12)c1c(Cl)ccc(F)c1Cl [Example 87, 7-[(R)-1-(2,6-Dichloro-3-fluorophenyl)ethoxy]-3-[1-(2-morpholin-4-ylethyl)-1H-pyrazol-4-yl]furo[3,2-c]pyridin-6-ylamine]
5.30 to 6.30	> 6.30	Nc1ncc2c(-c3cnn(C4CCNCC4)c3)coc2c1O[C@@H](c1ccccc1)C(F)(F)F [Example 391, 3-(1-Piperidin-4-yl-1H-pyrazol-4-yl)-7-((S)-2,2,2-trifluoro-1-phenylethoxy)furo[3,2-c]pyridin-6-ylamine]
5.30 to 6.30	> 6.30	C[C@H](Oc1c(N)ncc2c(-c3cnn(C4CCNCC4)c3)coc12)c1ccncc1 [Example 396, 3-(1-Piperidin-4-yl-1H-pyrazol-4-yl)-7-((S)-1-pyridin-4-yl-ethoxy)furo[3,2-c]pyridin-6-ylamine]
5.30 to 6.30	5.30 to 6.30	CC(=O)Nc1ccc(-c2coc3c(O[C@H](C)c4c(Cl)ccc(F)c4Cl)c(N)ncc23)cc1 [Example 58, N-(4-{6-Amino-7-[(R)-1-(2,6-dichloro-3-fluorophenyl)ethoxy]-furo[3,2-c]pyridin-3-yl}phenyl)acetamide]
> 6.30	> 6.30	C[C@@H](Oc1c(N)ncc2c(C3=CCN(C(=O)[C@@H]4CCCNC4)CC3)coc12)c1c(Cl)ccc(F)c1Cl [Example 241, (4-{6-Amino-7-[(R)-1-(2,6-dichloro-3-fluorophenyl)ethoxy]-furo[3,2-c]pyridin-3-yl}-3,6-dihydro-2H-pyridin-1-yl)-(R)-piperidin-3-ylmethanone]
5.30 to 6.30	> 6.30	C[C@@H](Oc1c(N)ncc2c(-c3cccc(CN)c3)coc12)c1c(Cl)ccc(F)c1Cl [Example 90, 3-(3-Aminomethylphenyl)-7-[(R)-1-(2,6-dichloro-3-fluorophenyl)-ethoxy]furo[3,2-c]pyridin-6-ylamine]
4.70 to 5.30	5.30 to 6.30	C[C@@H](Oc1c(N)ncc2c(C(N)=O)coc12)c1c(Cl)ccc(F)c1Cl [Example 180, 6-Amino-7-[(R)-1-(2,6-dichloro-3-fluorophenyl)ethoxy]furo[3,2-c]pyridine-3-carboxamide]
< 4.70	5.30 to 6.30	Nc1ncc2ccoc2c1OCc1nnc2ccc(-c3ccccc3)nn12 [Example 473, 7-[(6-phenyl[1,2,4]triazolo[4,3-b]pyridazin-3-yl)methoxy]furo[3,2-c]pyridin-6-amine]
5.30 to 6.30	5.30 to 6.30	C[C@@H](Oc1c(N)ncc2c(-c3cnn(C4CCN(C(N)=O)CC4)c3)coc12)c1c(Cl)ccc(F)c1Cl [Example 272, 4-(4-{6-Amino-7-[(1R)-1-(2,6-dichloro-3-fluorophenyl)ethoxy]furo[3,2-c]pyridin-3-yl}-1H-pyrazol-1-yl)piperidine-1-carboxamide]
5.30 to 6.30	5.30 to 6.30	CCS(=O)(=O)Nc1cccc(-c2coc3c(O[C@H](C)c4c(Cl)ccc(F)c4Cl)c(N)ncc23)c1 [Example 245, Ethanesulfonic acid (3-{6-amino-7-[(R)-1-(2,6-dichloro-3-fluorophenyl)ethoxy]-furo[3,2-c]pyridin-3-yl}phenyl)amide]
> 6.30	> 6.30	C[C@@H](Oc1c(N)ncc2c(-c3csc(CN4CCN(C)CC4)c3)coc12)c1c(Cl)ccc(F)c1Cl [Example 304, 7-[(R)-1-(2,6-Dichloro-3-fluorophenyl)ethoxy]-3-[5-(4-methyl-piperazin-1-ylmethyl)thiophen-3-yl]-furo[3,2-c]pyridin-6-ylamine]
5.30 to 6.30	5.30 to 6.30	CC(Oc1c(N)ncc2c(-c3cnn(C4CCNCC4)c3)coc12)c1cc(F)cc(F)c1 (stereo not drawn) [Example 384, 7-[1-(3,5-Difluorophenyl)ethoxy]-3-(1-piperidin-4-yl-1H-pyrazol-4-yl)furo[3,2-c]pyridin-6-ylamine]
5.30 to 6.30	5.30 to 6.30	C=C(C)CC(Oc1c(N)ncc2c(-c3cnn(C4CCNCC4)c3)coc12)c1c(Cl)cccc1Cl (stereo not drawn) [Example 363, 7-[1-(2,6-Dichlorophenyl)-3-methylbut-3-enyloxy]-3-(1-piperidin-4-yl-1H-pyrazol-4-yl)furo[3,2-c]pyridin-6-ylamine]
5.30 to 6.30	5.30 to 6.30	Nc1ncc2c(-c3cnn(C4CCNCC4)c3)coc2c1O[C@H]1CCC[C@H]1c1cccc(F)c1 [Example 408]
5.30 to 6.30	> 6.30	CCC(Oc1c(N)ncc2c(-c3cnn(C4CCNCC4)c3)coc12)c1c(Cl)cccc1Cl (stereo not drawn) [Example 340, 7-[1-(2,6-Dichlorophenyl)propoxy]-3-(1-piperidin-4-yl-1H-pyrazol-4-yl)furo[3,2-c]pyridin-6-ylamine]
> 6.30	> 6.30	CC(Cc1cccc(Br)c1)Oc1c(N)ncc2c(-c3cnn(C4CCNCC4)c3)coc12 (stereo not drawn) [Example 439, 7-[2-(3-Bromophenyl)-1-methylethoxy]-3-(1-piperidin-4-yl-1H-pyrazol-4-yl)furo[3,2-c]pyridin-6-ylamine]
